Experimental data as given in patent US20130012483A1, “NOVEL PHARMACEUTICAL COMPOSITION FOR THE TREATMENT OF NEURODEGENERATIVE OR NEUROVASCULAR DISEASES” (priority 2010, published 2013).

Test system: elderly patients suffering from Alzheimer disease or related disorders (ADRD)
Assay: Before-after clinical study: change in global cognitive performance by Mini-Mental State Examination (MMSE)
Type: in vivo, human
Conditions: for Change in MMSE score, mean ± SD (MMSE score after treatment − MMSE score before treatment): between-visits change, oral treatment; for MMSE score (/30 points), mean ± SD after treatment: first follow-up visit, oral vitamin D3 800-3500 IU per day and/or memantine 5-20 mg per day, mean time between visits 0.6±0.4 years
Procedure: Based on a before-after designed study, we compared the change in global cognitive performance using the Mini-Mental State Examination (MMSE) among elderly patients suffering from Alzheimer disease or related disorders (ADRD).
Three different treatments were administered to these patients: • vitamin D3 alone, • memantine alone, • vitamin D3 in combination with memantine.
All patients suffering from ADRD who were prescribed memantine and/or vitamin D3 with no cerebral vasodilatators and no anticholinesterasics (i.e., donepezil, galantamine or rivastigmine) at the University Memory Center of Angers University Hospital, France and who had at least one follow-up visit, were enrolled in this study.
The MMSE score was used to assess global cognitive performance during the study and was completed at baseline (i.e., before the drug prescription) and during the first follow-up visit. MMSE is a well-established measure of cognitive function in elderly people (see for example Folstein M F, Folstein S E, et al., Mini-Mental State: A practical method for grading the cognitive state of patients for the clinician; Journal of Psychiatric Research 1975; 12: 189-198; or Kalafat L, Hugonot-Diener L, Poitrenaud J., Standardisation et étalonnage français du<<Mini Mental State>>version Greco; Neuropsychol Rev 2003; 13: 209-236). It is a brief, practical screening test for cognitive dysfunction composed of five sections (orientation, registration, attention—calculation, recall, and language). […] Scores range from 30 (unimpaired) to 0 (impaired). The change in MMSE score was used to assess the change in cognitive performance after the introduction of the drug(s).
Subjects were prescribed either vitamin D3 alone, memantine alone, or Vitamin D3 in combination with memantine.
Vitamin D3 was administered orally either daily or monthly. Dosage of vitamin D3 ranges between 800 and 3500 IU per day.
Memantine was administered orally every day at once. Dosage ranges from 5 to 20 mg per day.
Age, gender, the MMSE score at baseline assessment as well as the time between two visits expressed in years (corresponding to the duration of treatment) were used as co-variables.
The subjects' baseline characteristics were summarized using means and standard deviations or frequencies and percentages, as appropriate. First, comparisons between subjects separated into three groups corresponding to the three treatments administered (i.e., vitamin D3 alone, memantine alone and Vitamin D3 in combination with memantine) were performed using the Chi-square test or the Kruskal-Wallis test, as appropriate. To address the problem of multiple comparisons, analyses were completed by a post hoc Bonferonni test.
Second, multiple linear regression analyses (i.e., fully adjusted method) were performed to examine the association between the change in MMSE score (dependent variable) and the use of vitamin D3 in combination with memantine (independent variable), after adjustment for clinical characteristics.
Three models were performed: • first, we examined the between-visits change in MMSE score taking as reference group the subjects using vitamin D3 alone; • second, we performed the same analysis taking as reference group the subjects using memantine alone; and • third, taking as reference group the subjects using vitamin D3 or memantine.

CC12CC3CC(C)(C1)CC(N)(C3)C2 [M., 3,5-dimethyltricyclo[3.3.1.1]decylamine]
Change in MMSE score, mean ± SD (MMSE score after treatment − MMSE score before treatment): −0.0 ± 1.8 points | Change in MMSE score, mean ± SD (MMSE score after treatment − MMSE score before treatment) (listed as memantine): 0.0±1.8 points | MMSE score (/30 points), mean ± SD after treatment: 16.1 ± 5.1 points

C=C1CC[C@H](O)C/C1=C/C=C1\CCC[C@]2(C)[C@@H]([C@H](C)CCCC(C)C)CC[C@@H]12 [V. D3, cholecalciferol]
points lost in MMSE score on average (between visits, printed as a loss): 0.6±3.1 points | Change in MMSE score, mean ± SD (MMSE score after treatment − MMSE score before treatment): −0.6 ± 3.1 points | MMSE score (/30 points), mean ± SD after treatment: 17.7 ± 6.5 points
